“Also recorded” adds a separate entry of the source.
Legend:
[1] = humans; cited from earlier work
[2] = human
[3] = several combinations of vehicles and enhancers; cited from earlier work
[4] = cited from earlier work

Compound | severe side-effects [1] | naloxone present to block alcohol reinforcement at end of session ([2]; 4-7 hrs later, transdermal) | systemic delivery rate ([2]; skin area of 900-1000 cm^2) | time to deliver the entire 30 mg systemically ([2]; including lag time of 18 min) | rates for naloxone [3] | half-life in the body [4]
O=C1CC[C@@]2(O)[C@H]3Cc4ccc(O)c5c4[C@@]2(CCN3CC2CC2)[C@H]1O5 [naltrexone] | free of severe side-effects |  |  |  |  | 
C=CCN1CC[C@]23c4c5ccc(O)c4O[C@H]2C(=O)CC[C@@]3(O)[C@H]1C5 [naloxone] |  | Sufficient quantities of naloxone to block alcohol reinforcement would still be present; also recorded: Sufficient amounts of naloxone to block alcohol reinforcement would still be present | about 5 mg/min | half an hour | over 300 μg/cm^2 /hr | desirably short half-life

Reference: patent US5096715A, “Method and means for treating alcoholism by extinguishing the alcohol-drinking response using a transdermally administered opiate antagonist” (Alko Ltd., priority 1989, dated 1992)
